Source: patent US7507739B2, “6-[(substituted)phenyl]triazolopyrimidines as anticancer agents” (Wyeth, priority 2003, dated 2009)

Columns and labels:
microtubules = assay: Competitive binding test, [3H]paclitaxel; design: species or system bovine; conditions: [3H]paclitaxel 2.1 μM, competitor 20 μM (5 μM for unlabeled paclitaxel)
Procedure: Medium is RPMI-1640 with L-glutamine, supplemented with 10% heat-inactivated fetal calf serum, 100 units/ml penicillin, and 100 μg/ml streptomycin (Gibco, Grand Island, N.Y.). Microtubule-associated protein (MAP)-rich tubulin, containing about 70% tubulin and 30% MAPs (#ML113), and highly purified tubulin (>99% pure, #TL238), both from bovine brain, are obtained from Cytoskeleton, Inc., Denver, Colo. PEM buffer (80 mM piperazine-N,N′-bis[2-ethanesulfonic acid], pH 6.9, 1 mM ethylene glycol-bis(β-aminoethyl ether)-N,N,N′,N′-tetraacetic acid, 1 mM magnesium chloride) and guanosine 5′-triphosphate (GTP) are also obtained from Cytoskeleton. [3H]paclitaxel, specific activity 14.7 Ci/mmol, is purchased from Moravek Biochemicals (Brea, Calif.). [^3H]vinblastine, specific activity 9.60 Ci/mmol and MicroSpin G-50 columns are obtained from Amersham Biosciences (Piscataway, N.J.). […] Other reagents are obtained from Sigma (St. Louis, Mo.).
The binding of examples of this invention to highly purified tubulin is studied by competitive inhibition methods. […] To study possible competition at the taxane site, on the other hand, polymerized tubulin (microtubules) is used because paclitaxel binds preferentially to microtubules.
For competition with [^3H]paclitaxel, highly purified tubulin is dissolved in PEM buffer containing 0.75 M glutamate and 25 μM dideoxy-GTP; final protein concentration is 0.25 to 0.35 mg/mL (2.5 to 3.5 μM). These conditions foster the rapid formation of short, stable microtubule polymers (Hamel, E., del Campo, A. A., and Lin, C. M. Stability of tubulin polymers formed with dideoxyguanosine nucleotides in the presence and absence of microtubule-associated proteins. J. Biol. Chem., 259: 2501-2508, 1984). This solution is incubated for 30 min at 37° to allow microtubules to form. Then [^3H]paclitaxel (final concentration of 2.1 μM, 1.2 Ci/mmol) and competitor (final concentration of 20 μM, except 5 μM for unlabeled paclitaxel) are added to aliquots of the polymerized tubulin solution and incubation at 37° is continued for another 30 min. […] The reactions are then centrifuged at top speed in an Eppendorf 5415C microfuge for 20 min at room temperature in order to pellet the microtubule protein. Triplicate aliquots of each supernatant are mixed with scintillation fluid and counted in a liquid scintillation spectrometer. From the amount of radioactivity in the supernatants and the measured total starting radioactivity, the amount of [^3H]paclitaxel bound to pelleted microtubule protein is calculated. The ability of each competitor to inhibit radioligand binding to pelleted protein is expressed as a percent of controls without any competitor.

HL-60 cells = assay: MTS cytotoxicity test with HL-60 cells; format: cell-based; conditions: Homo sapiens; HL-60 cells, MTS; read-out: IC50 HL-60
Excerpt: (§1) Human cancer cell lines, unless otherwise noted, are obtained from the American Type Culture Collection (Rockville, Md.). The following drug-sensitive parental cell lines, and their derived drug-resistant counterparts, are obtained from the originators as listed: (a) S1 (parental line from a subclone of human colon carcinoma line LS174T) and derived S1-M1-3.2 (herein called S1-M1) which expresses the MXR drug transporter protein, are provided by Dr. L. Greenberger, Wyeth Research (Rabindran, S. K., He, H., Singh, M., Brown, E., Collins, K. I., Annable, T., and Greenberger, L. M. Reversal of a novel multidrug resistance mechanism in human colon carcinoma cells by fumitremorgin C. Cancer Res., 58:5850-5858,1998); (b) parental HL-60 human promyelocytic leukemia line and derived HL-60/ADR, which expresses the MRP1 drug transporter protein, are provided by Dr. M. Center, University of Kansas (McGrath, T., and Center, M. S. Adriamycin resistance in HL60 cells in the absence of detectable P-glycoprotein. Biochem. Biophys. […] J. Biol. Chem., 261: 7762-7770,1986) via Dr. L. Greenberger, Wyeth Research.
(§2) The assay, which is sold in kit form by Promega (Madison, Wis.; CellTiter 96 AQueous Non-Radioactive Cell Proliferation Assay), is based on the conversion by viable cells, but not by dead cells, of the tetrazolium salt, MTS (3-(4,5-dimethylthiazol-2-yl)-5-(3-carboxymethoxyphenyl)-2-(4-sulphophenyl)-2H-tetrazolium, inner salt), into a water-soluble colored formazan which is detected by spectrophotometry. Compounds are tested at nine concentrations, in order to determine IC50 values. For the test procedure, cells are harvested by trypsinization (or, in the case of non-adherent cells, by simple resuspension), washed, counted and distributed to wells of 96-well flat-bottom microtiter plates at 1000 cells per well in 200 μL of medium. In addition, one row of wells on a separate plate received cells as above (“time 0” plate). All plates are incubated at 37° in humidified 5% CO2 in air for about 24 hr.
(§3) On day 2, compounds for test are diluted and added to wells. Compounds are dissolved in DMSO at 10 mg/mL. For each compound, nine serial 2-fold dilutions are prepared in DMSO. Ten μL of each dilution in DMSO is transferred to 100 μL of medium, mixed well, and then 5 μL of this dilution is transferred in quadruplicate to wells containing cells. […] Plates are returned to the incubator for three days. At the time of drug addition to the experimental plates, the MTS assay is run on the “time 0” plate. This produced the “time 0 MTS value” which is related to the number of viable cells per well at the time of drug addition.
(§4) After three days of culture with test compounds (day 5 overall), the MTS assay is done on all wells of the experimental plates. The absorbance values of the quadruplicate sample wells are averaged and divided by the average of the “time 0” values. […] The nine values for each compound are plotted against concentration, and the concentration that produced a relative color yield half way between the maximum and minimum is taken as the IC50 value.
HL-60/ADR cells overexpress the multidrug resistance protein MRP1 which mediates resistance to some chemotherapeutics (Gottesman, M. M., Fojo, T., and Bates, S. E. Multidrug resistance in cancer: role of ATP-dependent transporters. Nature Rev. Cancer, 2: 48-58, 2002). The IC50 values of representative examples of this invention, as well as reference compounds, on HL-60/ADR are compared to values on the sensitive parental HL-60 line.

KB-8-5 cells = assay: MTS cytotoxicity test with KB-8-5 cells (moderate P-glycoprotein); format: cell-based, human
Excerpt: as §1, §2, §3, §4
(§5) The KB lines express different amounts of the P-glycoprotein (MDR1) membrane pump which produces resistance to the action of many cytotoxic compounds, including paclitaxel and vincristine. The parental KB line expresses no P-glycoprotein, KB-8-5 expresses moderate levels of the protein, and KB-V1 expresses very high levels.

KB cells = assay: MTS cytotoxicity test with KB cells; format: cell-based; conditions: Homo sapiens; KB cells, MTS; read-out: IC50 KB
Excerpt: as §1, §2, §3, §4, §5

KB-V1 cells = assay: MTS cytotoxicity test with KB-V1 cells (very high P-glycoprotein); format: cell-based, human
Excerpt: as §1, §2, §3, §4, §5

For `C[C@H](Nc1c(-c2c(F)cc(OCCCN(C)C)cc2F)c(Cl)nc2ncnn12)C(F)(F)F.Cl` [Example 1a, 5-chloro-6-{4-[3-(dimethylamino)propoxy]-2,6-difluorophenyl}-N-[(1S)-2,2,2-trifluoro-1-methylethyl][1,2,4]triazolo[1,5-a]pyrimidin-7-amine hydrogen chloride Salt], the “[3H]Paclitaxel binding, percent of control without competitor, Mean” value (microtubules) was 108%, the IC50 (HL-60 cells) was 0.071 µM and the IC50 (KB-8-5 cells; Homo sapiens, KB-8-5 cells, MTS, read-out: IC50 KB 8.5) was 0.062 µM. For the same compound, the “Ratio 8.5/KB” value (KB-8-5 cells; IC50 on KB 8.5 cells/IC50 on KB cells) was 2.2, the IC50 (KB cells) was 0.028 µM and the IC50 (KB-V1 cells; Homo sapiens, KB-V1 cells, MTS) was 0.103 µM. The “Ratio VI/KB” value (KB-V1 cells; IC50 on KB VI cells/IC50 on KB cells) was 3.7 and the “recognition by P-glycoprotein” value (KB-V1 cells; inferred from IC50 on KB-V1 compared to parental KB line) was “show recognition by P-glycoprotein”.
